Assay results reported in patent publication US20260285850A1, “SUBSTITUTED OXAZOLIDINONES AND IMIDAZOLINONES AS HERBICIDES” (FMC CORPORATION, priority 2023, published 2026).

Columns and labels:
Type in all cases: in vivo
kochia (Bassia scoparia) [1] = test: Test A postemergence application, visual injury rating 0-100; details: 10 days
Text: (§1) Seeds of plant species selected from barnyardgrass (Echinochloa crus-galli), blackgrass (Alopecurus myosuroides), corn (Zea mays), foxtail, giant (giant foxtail, Setaria faberi), green foxtail (Setaria viridis), goosegrass (Eleusine indica), kochia (Bassia scoparia), oat, wild (wild oat, Avena fatua), palmer (palmer amaranth, palmer pigweed, Amaranthus palmeri), ragweed (common ragweed, Ambrosia artemisiifolia), ryegrass, Italian (italian ryegrass, Lolium multiflorum), soybean (Glycine max) and wheat (Triticum aestivum) were planted into a blend of loam soil and sand and treated preemergence with a directed soil spray using test chemicals formulated in a non-phytotoxic solvent mixture which included a surfactant.
(§2) At the same time, plants selected from these crops and weed species and also galium (catchweed bedstraw, Galium aparine) and horseweed (Erigeron canadensis) were planted in pots containing the same blend of loam soil and sand and treated with postemergence applications of test chemicals formulated in the same manner. Plants ranged in height from 2 to 10 cm and were in the one- to two-leaf stage for the postemergence treatment. Treated plants and untreated controls were maintained in a greenhouse for 10 days, after which time all treated plants were compared to untreated controls and visually evaluated for injury. Plant response ratings, summarized in Table A, are based on a 0 to 100 scale where 0 is no effect and 100 is complete control. A dash (-) response means no test result.

[2] = tested on: blackgrass (Alopecurus myosuroides); test: as above; details: 10 days
Text: as §1, §2

corn (Zea mays) [3] = test: as above; details: 10 days
Text: as §1, §2

[4] = tested on: green foxtail (Setaria viridis); test: as above; details: 10 days
Text: as §1, §2

[5] = tested on: barnyardgrass (Echinochloa crus-galli); test: as above; details: 10 days
Text: as §1, §2

[6] = tested on: wheat (Triticum aestivum); test: as above; details: 10 days
Text: as §1, §2

soybean (Glycine max) [7] = test: as above; details: 10 days
Text: as §1, §2

[8] = tested on: ryegrass, Italian (italian ryegrass, Lolium multiflorum); test: as above; details: 10 days
Text: as §1, §2

[9] = tested on: oat, wild (wild oat, Avena fatua); test: as above; details: 10 days
Text: as §1, §2

[10] = tested on: horseweed (Erigeron canadensis); test: as above; details: 10 days
Text: as §1, §2

[11] = tested on: ragweed (common ragweed, Ambrosia artemisiifolia); test: as above; details: 10 days
Text: as §1, §2

[12] = tested on: palmer (palmer amaranth, palmer pigweed, Amaranthus palmeri); test: as above; details: 10 days
Text: as §1, §2

kochia (Bassia scoparia) [13] = test: Test A preemergence soil spray, visual injury rating 0-100; details: 10 days, 0 = no effect, 100 = complete control
Text: as §1, §2

[14] = tested on: blackgrass (Alopecurus myosuroides); test: as above; details: 10 days, 0 = no effect, 100 = complete control
Text: as §1, §2

corn (Zea mays) [15] = test: as above; details: 10 days, 0 = no effect, 100 = complete control
Text: as §1, §2

[16] = tested on: green foxtail (Setaria viridis); test: as above; details: 10 days, 0 = no effect, 100 = complete control
Text: as §1, §2

[17] = tested on: barnyardgrass (Echinochloa crus-galli); test: as above; details: 10 days, 0 = no effect, 100 = complete control
Text: as §1, §2

[18] = tested on: wheat (Triticum aestivum); test: as above; details: 10 days, 0 = no effect, 100 = complete control
Text: as §1, §2

soybean (Glycine max) [19] = test: as above; details: 10 days, 0 = no effect, 100 = complete control
Text: as §1, §2

[20] = tested on: ryegrass, Italian (italian ryegrass, Lolium multiflorum); test: as above; details: 10 days, 0 = no effect, 100 = complete control
Text: as §1, §2

[21] = tested on: oat, wild (wild oat, Avena fatua); test: as above; details: 10 days, 0 = no effect, 100 = complete control
Text: as §1, §2

[22] = tested on: ragweed (common ragweed, Ambrosia artemisiifolia); test: as above; details: 10 days, 0 = no effect, 100 = complete control
Text: as §1, §2

[23] = tested on: palmer (palmer amaranth, palmer pigweed, Amaranthus palmeri); test: as above; details: 10 days, 0 = no effect, 100 = complete control
Text: as §1, §2

rice (Oryza sativa) = test: Test B flooded paddy test, visual plant response rating 0-100; details: 250 g ai/ha, Flood, applied to paddy water, evaluated after 13 days
Summary of the method: (§3)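 Visual scores versus untreated controls were recorded 13 days after treatment of greenhouse-held plants. At the 2-leaf stage, pots were flooded 3 cm above the soil surface and compounds added straight to the water.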

[24] = tested on: barnyardgrass (Echinochloa crusgalli); test: as above; details: 250 g ai/ha, Flood, applied to paddy water, evaluated after 13 days
Summary of the method: as §3

[25] = tested on: ducksalad (Heteranthera limosa); test: as above; details: 250 g ai/ha, Flood, applied to paddy water, evaluated after 13 days
Summary of the method: as §3

[26] = tested on: sedge, umbrella (small-flower umbrella sedge, Cyperus difformis); test: as above; details: 250 g ai/ha, Flood, applied to paddy water, evaluated after 13 days
Summary of the method: as §3

[27] = 31 g ai/ha, postemergence, 0 = no effect, 100 = complete control
[28] = Postemergence, 125 g ai/ha, 0 is no effect, 100 is complete control

CC1(C(=O)NC2CC=C(C(=O)O)C2)CN(c2cc(F)cc(F)c2)C(=O)O1 [Compound 38, (4S)-4-[[[3-(3,5-difluorophenyl)-5-methyl-2-oxo-5-oxazolidinyl]carbonyl]amino]-1-cyclopentene-1-carboxylate acid] was tested, and the “Kochia plant response rating (0-100)” value (kochia (Bassia scoparia) [1]; [27]) was 80, the “Kochia plant response rating (0 to 100 scale)” value (kochia (Bassia scoparia) [1]; [28]) was 80 and the “Blackgrass plant response rating (0-100)” value [2, 27] was 40. For the same compound, the “Blackgrass plant response rating (0 to 100 scale)” value [2, 28] was 90, the “Corn plant response rating (0-100)” value (corn (Zea mays) [3]; [27]) was 90 and the “Corn plant response rating (0 to 100 scale)” value (corn (Zea mays) [3]; [28]) was 100. The “Foxtail, Green plant response rating (0-100)” value [4, 27] was 90, the “Foxtail, Green plant response rating (0 to 100 scale)” value [4, 28] was 90 and the “Barnyardgrass plant response rating (0-100)” value [5, 27] was 90. The “Barnyardgrass plant response rating (0 to 100 scale)” value [5, 28] was 100, the “Wheat plant response rating (0-100)” value [6, 27] was 90 and the “Wheat plant response rating (0 to 100 scale)” value [6, 28] was 90. For the same compound, the “Soybean plant response rating (0-100)” value (soybean (Glycine max) [7]; [27]) was 60, the “Soybean plant response rating (0 to 100 scale)” value (soybean (Glycine max) [7]; [28]) was 80 and the “Ryegrass, Italian plant response rating (0-100)” value [8, 27] was 70. For the same compound, the “Ryegrass, Italian plant response rating (0 to 100 scale)” value [8, 28] was 90, the “Oat, Wild plant response rating (0-100)” value [9, 27] was 90 and the “Oat, Wild plant response rating (0 to 100 scale)” value [9, 28] was 90. For the same compound, the “Horseweed plant response rating (0-100)” value [10, 27] was 30, the “Horseweed plant response rating (0 to 100 scale)” value [10, 28] was 70 and the “Ragweed plant response rating (0-100)” value [11, 27] was 20. The “Ragweed plant response rating (0 to 100 scale)” value [11, 28] was 50, the “Amaranth, Palmer plant response rating (0-100)” value [12, 27] was 40 and the “Amaranth, Palmer / Pigweed, Palmer plant response rating (0 to 100 scale)” value [12, 28] was 100. The “Kochia plant response rating (0-100)” value (kochia (Bassia scoparia) [13]; 31 g ai/ha) was 0, the “Kochia plant response rating (0 to 100 scale)” value (kochia (Bassia scoparia) [13]; 125 g ai/ha) was 20 and the “Blackgrass plant response rating (0-100)” value ([14]; 31 g ai/ha) was 0. The “Blackgrass plant response rating (0 to 100 scale)” value ([14]; 125 g ai/ha) was 50, the “Corn plant response rating (0-100)” value (corn (Zea mays) [15]; 31 g ai/ha) was 0 and the “Corn plant response rating (0 to 100 scale)” value (corn (Zea mays) [15]; 125 g ai/ha) was 90. The “Foxtail, Green plant response rating (0-100)” value ([16]; 31 g ai/ha) was 0, the “Foxtail, Green plant response rating (0 to 100 scale)” value ([16]; 125 g ai/ha) was 20 and the “Barnyardgrass plant response rating (0-100)” value ([17]; 31 g ai/ha) was 0. For the same compound, the “Barnyardgrass plant response rating (0 to 100 scale)” value ([17]; 125 g ai/ha) was 40, the “Wheat plant response rating (0-100)” value ([18]; 31 g ai/ha) was 40 and the “Wheat plant response rating (0 to 100 scale)” value ([18]; 125 g ai/ha) was 90. The “Soybean plant response rating (0-100)” value (soybean (Glycine max) [19]; 31 g ai/ha) was 10, the “Soybean plant response rating (0 to 100 scale)” value (soybean (Glycine max) [19]; 125 g ai/ha) was 80 and the “Ryegrass, Italian plant response rating (0-100)” value ([20]; 31 g ai/ha) was 0. The “Ryegrass, Italian plant response rating (0 to 100 scale)” value ([20]; 125 g ai/ha) was 90, the “Oat, Wild plant response rating (0-100)” value ([21]; 31 g ai/ha) was 0 and the “Oat, Wild plant response rating (0 to 100 scale)” value ([21]; 125 g ai/ha) was 60. For the same compound, the “Ragweed plant response rating (0-100)” value ([22]; 31 g ai/ha) was 0, the “Ragweed plant response rating (0 to 100 scale)” value ([22]; 125 g ai/ha) was 0 and the “Amaranth, Palmer plant response rating (0-100)” value ([23]; 31 g ai/ha) was 0. For the same compound, the “Amaranth, Palmer plant response rating (0 to 100 scale)” value ([23]; 125 g ai/ha) was 70, the “Plant response rating, Rice (0 to 100 scale, 0 is no effect and 100 is complete control)” value (rice (Oryza sativa)) was 70 and the “Plant response rating, Barnyardgrass (0 to 100 scale, 0 is no effect and 100 is complete control)” value [24] was 55. For the same compound, the “Plant response rating, Ducksalad (0 to 100 scale, 0 is no effect and 100 is complete control)” value [25] was 55 and the “Plant response rating, Sedge, Umbrella (0 to 100 scale, 0 is no effect and 100 is complete control)” value [26] was 95.
